Measurements: ChEMBL document CHEMBL5154721, “Discovery of HDAC6-Selective Inhibitor NN-390 with in Vitro Efficacy in Group 3 Medulloblastoma” (J Med Chem, 2022)
The source made the active and inactive calls. The calls are words filed in the database; no cut-off is given here.

What was measured:
[1] = Lipophilicity, logP of the compound; type: physicochemical; conditions: octanol/water
Histone deacetylase 7 = molecular target: T1, Histone deacetylase 7 (Homo sapiens, UniProt Q8WUI4); assay: Inhibition of full length human recombinant HDAC7 expressed in Sf9 baculovirus system using FAM-labeled acetylated peptide as substrate by measuring fluorescence intensity by EMSA method
T1 sequence (Q8WUI4 whole entry): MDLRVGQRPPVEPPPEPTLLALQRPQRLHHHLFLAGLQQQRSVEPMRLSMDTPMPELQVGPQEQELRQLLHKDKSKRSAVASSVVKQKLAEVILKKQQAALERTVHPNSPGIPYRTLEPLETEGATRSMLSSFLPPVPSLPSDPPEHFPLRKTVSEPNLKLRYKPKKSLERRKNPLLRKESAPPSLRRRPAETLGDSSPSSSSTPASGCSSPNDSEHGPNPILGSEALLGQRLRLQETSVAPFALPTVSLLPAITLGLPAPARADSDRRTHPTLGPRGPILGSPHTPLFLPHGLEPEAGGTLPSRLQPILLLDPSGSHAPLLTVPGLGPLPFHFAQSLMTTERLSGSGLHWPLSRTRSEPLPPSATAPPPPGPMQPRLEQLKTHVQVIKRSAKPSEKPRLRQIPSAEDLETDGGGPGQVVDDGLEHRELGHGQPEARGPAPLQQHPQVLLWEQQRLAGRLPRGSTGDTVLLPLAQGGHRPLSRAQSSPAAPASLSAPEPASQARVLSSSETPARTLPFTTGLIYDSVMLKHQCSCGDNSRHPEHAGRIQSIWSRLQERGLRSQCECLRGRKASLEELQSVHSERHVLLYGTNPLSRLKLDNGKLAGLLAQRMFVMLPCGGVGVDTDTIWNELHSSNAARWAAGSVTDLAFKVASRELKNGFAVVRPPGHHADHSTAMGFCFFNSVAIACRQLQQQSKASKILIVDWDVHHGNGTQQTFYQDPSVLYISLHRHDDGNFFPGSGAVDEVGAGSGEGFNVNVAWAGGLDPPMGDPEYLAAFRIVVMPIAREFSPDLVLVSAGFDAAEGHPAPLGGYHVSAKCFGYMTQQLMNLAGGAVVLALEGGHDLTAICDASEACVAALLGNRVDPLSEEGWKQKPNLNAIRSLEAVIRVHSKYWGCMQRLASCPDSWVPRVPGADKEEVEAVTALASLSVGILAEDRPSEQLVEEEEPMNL

[2] = molecular target: T2, Protein deacetylase HDAC6 (Homo sapiens) (UniProt Q9UBN7); assay: Potency index, ratio of test compound residence time to KT-531 residence time in full length HDAC6-NanoLuc fusion protein (unknown origin) expressed in HeLa cells by NanoBRET assay; type: cell-based; conditions: time 5.0 min
T2 sequence (whole entry): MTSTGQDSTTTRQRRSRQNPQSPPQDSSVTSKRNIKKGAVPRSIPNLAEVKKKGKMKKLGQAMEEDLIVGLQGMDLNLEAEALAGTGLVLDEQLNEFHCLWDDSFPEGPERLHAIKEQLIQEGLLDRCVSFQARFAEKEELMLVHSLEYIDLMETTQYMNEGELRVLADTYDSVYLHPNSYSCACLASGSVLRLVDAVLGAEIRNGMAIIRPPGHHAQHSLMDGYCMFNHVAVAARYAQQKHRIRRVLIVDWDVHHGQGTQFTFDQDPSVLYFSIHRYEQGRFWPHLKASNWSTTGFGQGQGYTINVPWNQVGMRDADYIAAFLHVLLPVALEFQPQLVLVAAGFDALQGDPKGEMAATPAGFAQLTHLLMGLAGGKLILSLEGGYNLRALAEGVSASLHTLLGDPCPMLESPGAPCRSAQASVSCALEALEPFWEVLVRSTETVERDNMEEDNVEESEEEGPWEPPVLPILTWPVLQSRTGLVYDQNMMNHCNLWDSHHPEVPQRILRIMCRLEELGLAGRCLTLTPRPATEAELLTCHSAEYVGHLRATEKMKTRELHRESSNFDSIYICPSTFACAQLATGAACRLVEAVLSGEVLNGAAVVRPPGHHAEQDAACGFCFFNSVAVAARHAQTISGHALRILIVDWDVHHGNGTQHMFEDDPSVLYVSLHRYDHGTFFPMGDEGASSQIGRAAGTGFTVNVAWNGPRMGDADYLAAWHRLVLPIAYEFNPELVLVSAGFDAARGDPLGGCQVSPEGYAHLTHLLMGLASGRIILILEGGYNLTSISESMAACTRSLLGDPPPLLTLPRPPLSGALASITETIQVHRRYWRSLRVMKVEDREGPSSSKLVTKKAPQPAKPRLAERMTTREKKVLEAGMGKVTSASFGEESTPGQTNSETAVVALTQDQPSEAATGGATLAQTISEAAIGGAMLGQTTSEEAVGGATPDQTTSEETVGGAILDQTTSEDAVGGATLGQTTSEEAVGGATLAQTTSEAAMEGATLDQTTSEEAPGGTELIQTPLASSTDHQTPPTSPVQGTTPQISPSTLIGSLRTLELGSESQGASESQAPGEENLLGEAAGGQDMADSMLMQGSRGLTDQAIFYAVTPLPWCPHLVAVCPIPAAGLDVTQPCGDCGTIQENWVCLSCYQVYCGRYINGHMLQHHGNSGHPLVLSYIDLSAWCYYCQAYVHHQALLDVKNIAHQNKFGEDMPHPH

MV4-11 = assay: Induction of apoptosis in human MV4-11 cells assessed as late apoptotic cells at 1 uM after 24 hrs by Annexin V/PI staining based flow cytometric analysis (Rvb=2%); type: functional
HD-MB03 = assay: Antiproliferative activity against human HD-MB03 cells at 964 nM after 4 hrs by microplate reader method; type: functional, cell-based

logP [1]: 3.41
IC50 (Histone deacetylase 7): > 5 µM
fold change (FC) [2]: 1.9
SMILES: CC(C)N(Cc1ccc(C(=O)NO)cc1)S(=O)(=O)c1cc(F)c(F)c(F)c1F
Activity (MV4-11): 10.88%
Activity (HD-MB03): Active
